# ± gives the expanded uncertainty stated by the source.
# Columns and labels:
# [1] = Molar enthalpy of transition or fusion; settings: Crystal; DSC
# [2] = Crystal; DTA
compound,measurement,setting,value
"c1ccc2nsnc2c1 [2,1,3-benzothiadiazole]",Molar enthalpy of transition or fusion,[1],3.9 ± 0.0932 kcal/mol
same,Triple point temperature,[2],316.96 ± 0.39 K
